Experiments:
[1] = Inhibitory concentration against growth of LPS stimulated human peripheral blood mononuclear cells; type: functional
[2] = tested on: T-cell; test: Inhibitory concentration against T cell proliferation using concanavalin A stimulated mice spleen cells; type: functional, cell-based; conditions: Mus musculus
[3] = Inhibitory concentration against TNF-alpha production from human peripheral blood mononuclear cells stimulated by LPS; type: functional

| IC50 ([3]; Homo sapiens) | IC50 [3] | Compound | IC50 ([1]; Homo sapiens) | IC50 [2] | IC50 [1] |
| --- | --- | --- | --- | --- | --- |
| > 30 µM |  | Oc1ccc2ncnc(NCCc3ccc(Cl)cc3)c2c1 | > 30 µM | 1.4 µM |  |
| 14.6 µM |  | O=[N+]([O-])c1ccc2ncnc(NCCc3ccc(Cl)cc3)c2c1 | > 30 µM | 3.2 µM |  |
| > 30 µM |  | Clc1ccc(CCNc2ncnc3ccc(Cl)cc23)cc1 | > 30 µM | > 10 µM |  |
| > 30 µM |  | CS(=O)(=O)N1CCN(c2cc3ncnc(NCCc4ccc(Cl)cc4)c3cc2[N+](=O)[O-])CC1 | 4.5 µM | 4.3 µM |  |
| > 30 µM |  | O=[N+]([O-])c1ccc2c(NCCc3ccc(Cl)cc3)ncnc2c1 | > 30 µM | 5.6 µM |  |
| > 30 µM |  | Clc1ccc(CCNc2ncnc3ccc(OCc4ccccc4)cc23)cc1 | > 30 µM | > 10 µM |  |
| 24.8 µM |  | O=[N+]([O-])c1cc2c(NCCc3ccc(Cl)cc3)ncnc2cc1N1CCOCC1 | 22.5 µM | 8.3 µM |  |
| > 30 µM |  | Nc1ccc2ncnc(NCCc3ccc(Cl)cc3)c2c1 | > 30 µM | 2.6 µM |  |
| > 30 µM |  | CNc1ccc2ncnc(NCCc3ccc(Cl)cc3)c2c1 | > 30 µM | > 10 µM |  |
| > 30 µM |  | O=CNc1ccc2ncnc(NCCc3ccc(Cl)cc3)c2c1 | > 30 µM | > 10 µM |  |
| 19.4 µM |  | CN(C)c1cc2ncnc(NCCc3ccc(Cl)cc3)c2cc1[N+](=O)[O-] | 27.3 µM | 8.6 µM |  |
| 0.8 µM |  | O=[N+]([O-])c1cc2c(NCCc3ccc(Cl)cc3)ncnc2cc1N1CCNCC1 | 12.1 µM | 1.1 µM |  |
| > 30 µM |  | COc1nc(NCCc2ccc(Cl)cc2)c2ccccc2n1 | > 30 µM | > 10 µM |  |
| > 30 µM |  | Nc1ccc2c(NCCc3ccc(Cl)cc3)ncnc2c1 | > 30 µM | 3.4 µM |  |
| > 30 µM |  | Clc1ccc(CCNc2ncnc3cc(Cl)ccc23)cc1 | > 30 µM | > 10 µM |  |
| > 30 µM |  | Clc1ccc(CCNc2ncnc3ccc(NCc4ccccc4)cc23)cc1 | > 30 µM | > 10 µM |  |
| > 30 µM |  | Clc1ccc(CCNc2ncnc3ccccc23)cc1 | > 30 µM | 0.5 µM |  |
| > 30 µM |  | O=[N+]([O-])c1cc2c(NCCc3ccc(Cl)cc3)ncnc2cc1N1CCN(c2ccccc2)CC1 | > 30 µM | > 10 µM |  |
| > 30 µM |  | O=[N+]([O-])c1cc2c(NCCc3ccc(Cl)cc3)ncnc2cc1N1CCN(c2ccccn2)CC1 | > 30 µM | > 10 µM |  |

| IC50 ([3]; Homo sapiens) | IC50 [3] | Compound | IC50 ([1]; Homo sapiens) | IC50 [2] | IC50 [1] |
| --- | --- | --- | --- | --- | --- |
| > 30 µM |  | CCNc1cc2ncnc(NCCc3ccc(Cl)cc3)c2cc1[N+](=O)[O-] | > 30 µM | > 10 µM |  |
| > 30 µM |  | Clc1ccc(CCNc2ncnc3ccc(Br)cc23)cc1 | > 30 µM | 4.8 µM |  |
| 2.1 µM |  | O=[N+]([O-])c1cc2c(NCCc3ccc(Cl)cc3)ncnc2cc1N1CCCNCC1 | 9.8 µM | 0.9 µM |  |
| > 30 µM |  | O=[N+]([O-])c1cc2c(NCCc3ccc(Cl)cc3)ncnc2cc1Cl | > 30 µM | > 10 µM |  |
| > 30 µM |  | CCOc1cc2ncnc(NCCc3ccc(Cl)cc3)c2cc1[N+](=O)[O-] | > 30 µM |  |  |
| > 30 µM |  | O=[N+]([O-])c1cc2c(NCCc3ccc(Cl)cc3)ncnc2cc1N1CCCCC1 | > 30 µM | > 10 µM |  |
| 1.4 µM |  | CN1CCN(c2cc3ncnc(NCCc4ccc(Cl)cc4)c3cc2[N+](=O)[O-])CC1 | 22.1 µM | 1.2 µM |  |
| > 30 µM |  | Fc1cc2ncnc(NCCc3ccc(Cl)cc3)c2cc1F | > 30 µM |  |  |
| > 30 µM |  | COc1cc2ncnc(NCCc3ccc(Cl)cc3)c2cc1OC | > 30 µM | 1.4 µM |  |
| > 30 µM |  | Cc1nc(NCCc2ccc(Cl)cc2)c2ccccc2n1 | > 30 µM | 0.2 µM |  |
| > 30 µM |  | COc1cc2ncnc(NCCc3ccc(Cl)cc3)c2cc1[N+](=O)[O-] | > 30 µM |  |  |
| > 30 µM |  | Clc1ccc(CCNc2nc(Cl)nc3ccccc23)cc1 | > 30 µM | 1.2 µM |  |
| > 30 µM |  | Clc1ccc(CCNc2nc(-c3ccccc3)nc3ccccc23)cc1 | > 30 µM | > 10 µM |  |
| > 30 µM |  | Cc1ccc2ncnc(NCCc3ccc(Cl)cc3)c2c1 | > 30 µM | 0.8 µM |  |
| 0.01 µM |  | C[C@@H]1C[C@H]2[C@@H]3CCC4=CC(=O)C=C[C@]4(C)[C@@]3(F)[C@@H](O)C[C@]2(C)[C@@]1(O)C(=O)CO [DEXAMETHASONE] | 0.04 µM | 0.005 µM |  |
| > 30 µM |  | CC(C)(S)[C@@H](N)C(=O)O [PENICILLAMINE] | > 30 µM |  |  |
| 0.5 µM |  | COc1ccc(C2CNC(=O)C2)cc1OC1CCCC1 (centres undefined) [ROLIPRAM] | > 30 µM | > 10 µM |  |
| > 30 µM |  | O=C(O)c1cc(/N=N/c2ccc(S(=O)(=O)Nc3ccccn3)cc2)ccc1O [SULFASALAZINE] | > 30 µM | > 10 µM |  |
|  | > 30 µM | AURANOFIN |  |  | > 30 µM |
